# Measured values as given in patent publication US20110105382A1, “CALMODULIN-BINDING PEPTIDES THAT REDUCE CELL PROLIFERATION IN CANCER AND SMOOTH MUSCLE PROLIFERATION DISEASES” (priority 2007, published 2011).
# Where no end group is shown, it is not given here.
# Columns and labels:
# [1] = tested on: primary human aortic VSMC; assay: 3H-thymidine incorporation assay, human aortic VSMC; assay type: cell-based; settings: 10 and 100 μM for 1.0 h, 72 h after treatment
# Experimental: Cell culture conditions The isolation and culture of primary mouse aortic VSMC have was performed according to methods previously described (Afroze T, Yang L L, Wang C, Gros R, Kalair W, Hogue A N, Mungrue I N, Zhu Z, Husain M. Calcineurin-independent regulation of plasma membrane Ca2+ ATPase-4 in the vascular smooth muscle cell cycle. Am J Physiol Cell Physiol. July 2003; 285(1):C88-95). VSMCs were grown in DMEM (GIBCO/BRL, Gaithersburg, Md.) supplemented with 10% FBS (Hyclone, Logan, Utah), 50 ng/mL platelet-derived growth factor (PDGF, Sigma) and 1% penicillin-streptomycin (GIBCO/BRL). For serum starvation, cells were grown to 60% to 70% confluence, washed twice with PBS, and cultured in starvation medium (0.25% FBS-supplemented DMEM) for 72 hours to achieve Go arrest. Progression to G1/S was brought about by stimulation with 10% FBS and 50 ng/mL PDGF for 24 hours. Cells and reagents for primary human aortic VSMC culture were purchased from Cascade Biologics. […]
# ^3H-thymidine incorporation proliferation assay. […] Cells were grown at 37° C. and analyzed at 24, 48 and 72 h after ^3H-thymidine exposure. […] Solubilized contents of wells were removed and added to 2.5 ml of scintillation fluid (ReadySafe™ Cocktail, Beckman Coulter, Product No. 141349). Radioactivity was measured in a scintillation counter (Beckman Coulter, LS 6500).
# [2] = tested on: mouse carotid artery injury model; assay: Mouse carotid artery injury model (wire denudation); assay type: in vivo; settings: truncated peptides, arteries harvested 14 days following injury
# Experimental: Injury of mouse carotid arteries (wire denudation) and local administration of CBS peptide. The mice (8-12 weeks, 20-25 g) were anesthetized with i.p. Ketamine (100 mg/kg, MTC Pharmaceuticals, Cambridge, ON, Canada) and Xylazine (10 mg/kg, Bayer Inc., Etobicoke, ON, Canada). Surgical procedures were performed under a dissecting microscope (MZ6 Leica, Heerbrugg, Switzerland). The left carotid artery was exposed via a midline incision on the ventral side of the neck. The bifurcation of the carotid artery was located and two ligatures were placed around the external carotid artery. This vessel was then tied off with the distal ligature. […] An incision hole is made between the two ligatures of external carotid artery, through which the denudation device is introduced. This device consists of a curved flexible copper wire (0.3 mm diameter) which is passed down to the common carotid artery, and under rotation, passed along this segment four times. The wire was then removed, and the external carotid artery was tied off proximal to the incision hole with the proximal ligature. […]
# Tissue processing and analysis. […] Images were analyzed by planimetry using Image J software. […] Medial mass was calculated subtracting the luminal from whole area. […]
# [3] = tested on: Saos-2 (human osteosarcoma); assay: MTT proliferation assay, Saos-2; assay type: cell-based; settings: 100 μM, MTT after 2 days
# Experimental: (§1) Cell culture conditions The isolation and culture of primary mouse aortic VSMC have was performed according to methods previously described (Afroze T, Yang L L, Wang C, Gros R, Kalair W, Hogue A N, Mungrue I N, Zhu Z, Husain M. Calcineurin-independent regulation of plasma membrane Ca2+ ATPase-4 in the vascular smooth muscle cell cycle. Am J Physiol Cell Physiol. July 2003; 285(1):C88-95). VSMCs were grown in DMEM (GIBCO/BRL, Gaithersburg, Md.) supplemented with 10% FBS (Hyclone, Logan, Utah), 50 ng/mL platelet-derived growth factor (PDGF, Sigma) and 1% penicillin-streptomycin (GIBCO/BRL). For serum starvation, cells were grown to 60% to 70% confluence, washed twice with PBS, and cultured in starvation medium (0.25% FBS-supplemented DMEM) for 72 hours to achieve Go arrest. Progression to G1/S was brought about by stimulation with 10% FBS and 50 ng/mL PDGF for 24 hours. Cells and reagents for primary human aortic VSMC culture were purchased from Cascade Biologics. Human VSMC(C-007-5C) were grown in Medium 231 with Smooth Muscle Growth Supplement (SMGS) S-007-25 and 1% penicillin-streptomycin (GIBCO/BRL). Cyclin E1/E2 double knockout mouse embryonic fibroblasts (MEF) were kindly provided by Dr. P. Sicinski (Harvard Medical School), and maintained in DMEM with 10% FBS (Hyclone) and 1% penicillin-streptomycin (GIBCO/BRL). Go arrest of MEF was achieved by starvation for 48 h in medium lacking FBS. Mouse embryonic fibroblasts (MEF) were maintained for normal culture in 10% FBS-supplemented DMEM. For the starvation of MEF, cells were cultured in starvation medium without FBS for 48 hours to achieve Go arrest. HeLa (human cervical cancer cell), Saos-2 (human osteosarcoma cell) and A549 (human lung cancer cell) were cultured in 10% FBS-supplemented DMEM.
# (§2) MTT colorimetric survival assay. Active mitochondria of living cells can cleave MTT to produce formazan, the amount of which is directly proportional to the number of living cells. Cell survival was assessed (Denizot, 1986). Cells in 96-well plate were washed two times with PBS followed by 4 hr of incubation at 37° C. with 1 mg/ml of MTT (in phenol red free DMEM supplemented with 2 mM of L-glutamine & 1 mM of sodium pyruvate) in a reaction volume of 100 μl. After removing MTT solution, DMSO was added to dissolve formazan crystals. Plate was shaken for 5 min at 55° C. for complete dissolve. Dye absorbance in viable cells was measured at 570 nm with 630 nm as a reference wavelength. All experiments were repeated at least 3 times, and each experimental condition was repeated in at least quadruplicate wells in each experiment.
# primary mouse aortic SMC [4] = assay type: cell-based; settings: for proliferation of primary mouse aortic SMC (MTT), TAT-fused peptides: 100 μM, MTT after 2 days
# Experimental: as §1, §2
# (§3) Nucleofection. For peptides delivery via Nucleofector technology, 1×10^6 cells were harvested, resuspended in 100 μl of Nucleofector solution (for VSMC: Cat. No. VPI-1004; for MEF: Cat. No.: VPD-1005, both provided by Amaxa GmBH, Köln, Germany) and mixed with 100 nmole (in 10 μl) of each peptide. The cell solution was transferred into a kit-provided cuvette and positioned into a Nucleofector device. Subsequently, the transfection was performed with a single pulse using the preprogrammed nucleofection program (A-33 for VSMC; T-20 for MEF) according to the manufacturer's recommendation. Following nucleofection, the cells were transferred into 96-well plate (2K or 5K cells per well for MTT assay) or T25 culture flasks (for FACS analysis) containing pre-warmed stem cell medium using kit-provided plastic pipettes to prevent cell damage and the cells were cultured at 37° C. in 5% CO2.
# [5] = tested on: A549 (human lung cancer cell); assay: MTT proliferation assay, A549; assay type: cell-based; settings: 100 μM, MTT after 2 days
# Experimental: as §1, §2
# [6] = tested on: HeLa (human cervical cancer cell); assay: MTT proliferation assay, HeLa; assay type: cell-based; settings: 100 μM, MTT after 2 days
# Experimental: as §1, §2
# cyclin E/CDK2 = target: T1, cyclin E/CDK2 (Mus musculus, UniProt P0DP26); assay: Histone H1 in vitro kinase assay; assay type: biochemical; settings: G1/S-synchronized mouse VSMC, each peptide 100 μM
# T1 construct: endogenous in cells; host or cells: primary mouse aortic VSMC (G1/S-synchronized), immunoprecipitated complexes
# Experimental: Immunoprecipitation and kinase assays. 5×10^6 SMC were harvested and re-suspended with 2 ml of lysis buffer (50 mM Tris (pH 7.4), 250 mM NaCl, 5 mM EDTA, 0.1% NP-40, 0.5 mM DTT, 0.1 mM Na3VO4, 5 μg/ml leupeptin, 5 μg/ml aprotinin, 2 mM PMSF, and 10% glycerol). After homogenization, cell lysates were clarified by centrifugation at 12×10^3 rpm, 4° C. for 30 min, and the supernatant was collected. An aliquot was taken for protein concentration determination using the BCA protein assay kit (Sigma). Cell extracts (200 μg) were then incubated for 2 hr at 4° C. with saturating concentrations of polyclonal antibodies (Abs). […]
# For the in vitro kinase assays, 20 μl of kinase reaction mixture (20 mM Tris (pH 7.4), 5 mM MgCl2, 2.5 mM MnCl2, 1 mM DTT, 10 μg of C-terminal of human Rb protein (Upstate Biotech.) or 4 μg of histone-H1 (Upstate Biotech.) as substrates, 13 μM ATP, and 2.4 μCi [γ-^32P]ATP (Amersham Pharmacia)) was added to CDK2-, cyclin E-, or cyclin A-immunoprecipitated (IPd) complexes after removing the washing buffer from GammaBind™ G Sepharose resin. Based on the total calcium content of kinase reaction mixtures (as determined by inductively coupled plasma atomic emission spectrometry), amounts of EGTA required to yield final concentrations of free Ca^2+ ion (0, 100 or 500 nM) were calculated by WinMaxC (http://www.stanford.edu/˜cpatton/winmaxc2.html). […]
# primary mouse aortic SMC [7] = assay: Lactate dehydrogenase (LDH) cytotoxicity assay; assay type: cell-based; settings: nucleofection, 1 mM, asynchronized cells
# Experimental: Lactate dehydrogenase (LDH) assay. To measure the level of cytotoxicity, LDH based in vitro toxicology assay kit (Sigma, Cat. No.: TOX-7) was used (Legrand, 1992). After nucleofection of peptides, 10^6 cells were grown on 24-well plate in the presence of phenol red free DMEM. 3 days later, 500 μl of cell culture media was collected from each well for assay followed by centrifugation (12,000 rpm, 30 min, at 4° C.) to remove any cell debris completely. Subsequent procedures for enzymatic assay were performed according to manufacture's protocol.
# as §3, with “Following nucleofection, the cells were transferred into 96-well plate (2K or 5K cells per well for MTT assay) or T25 culture flasks (for FACS analysis) containing pre-warmed stem cell medium using kit-provided plastic pipettes to prevent cell damage and the cells were cultured at 37° C. in 5% CO2.” left out
Sequence,proliferation of Saos-2 cells (MTT) [3],"proliferation of primary mouse aortic SMC (MTT), TAT-fused peptides (primary mouse aortic SMC [4])",proliferation of A549 cells (MTT) [5],proliferation of HeLa cells (MTT) [6],other results
"RRRQRRKKRGVDIDQARLKMLGQTRPHDDDDC [TAT-NC, reference compound]",–,–,–,–,"3H-thymidine incorporation (S-phase entry), human aortic VSMC [1]: not"
RRRQRRKKRGVTVFL (N-terminal TAT cell-penetrating peptide; listed as Homo sapiens) [TAT-SEQ ID NO:2(#16-20)],–,–,–,–,"anti-proliferative effect on the site of injury (media mass, I/M ratio) [2]: anti-proliferative effect"
"RRRQRRKKRG [TAT domain, reference compound]",no anti-proliferative effect,no anti-proliferative effect,no anti-proliferative effect,no anti-proliferative effect,–
RRRQRRKKRGEFSARSRKRKANVTVF (N-terminal TAT peptide; listed as Homo sapiens) [TAT-SEQ ID NO:2 (#4-19)],started to lose its proliferative function,started to lose its proliferative function,started to lose its proliferative function,started to lose its proliferative function,–
"FAFGRQVNKARSEKALGVSDRT [scrambled, reference compound]",–,–,–,–,proliferation of primary mouse aortic SMC (MTT) (primary mouse aortic SMC [4]; peptide delivered via nucleofection): no effect
RRRQRRKKRGAEFSARSRKRKANVTVFL (N-terminal TAT peptide; listed as Homo sapiens) [TAT-SEQ ID NO:2 (#3-20)],most powerfully and efficiently,most powerfully and efficiently,most powerfully and efficiently,most powerfully and efficiently,"anti-proliferative effect on the site of injury (media mass, I/M ratio) [2]: anti-proliferative effect"
GGAEFSARSRKRKANVTVFLQD [CBS],–,–,–,–,maximum level of inhibition of VSMC proliferation (primary mouse aortic SMC [4]): 50%; inhibition of in vitro cyclin E/CDK2 activity (cyclin E/CDK2): 40%; cell death (LDH assay) (primary mouse aortic SMC [7]): did not cause any increase in cell death
